Measurements taken from the SangsterLogP compilation.

Structure (SMILES)	logP
CCS(=O)c1sc(C#N)cc1C#N (configuration not stated)	1.78
CS(=O)c1ccc([N+](=O)[O-])s1 (configuration not stated)	1.4
CCS(=O)c1sccc1[N+](=O)[O-] (configuration not stated)	2.06
COc1c(C#N)sc(S(C)=O)c1C#N (configuration not stated)	2.02
CCOC(=O)c1cc(C#N)c(S(C)=O)s1 (configuration not stated)	2.27
CS(=O)c1scc(-c2ccccc2)c1[N+](=O)[O-] (configuration not stated)	3.2
CCS(=O)c1sc(C(C)=O)c(C)c1C#N (configuration not stated)	2.22
CS(=O)c1ccsc1 (configuration not stated)	0.91
CCS(=O)c1sc(C#N)c(OC)c1C#N (configuration not stated)	2.35
CCS(=O)c1sc(C(C)=O)c(C)c1[N+](=O)[O-] (configuration not stated)	2.81
CCCS(=O)c1sc(C#N)cc1C#N (configuration not stated)	2.18
CS(=O)c1sccc1C#N (configuration not stated)	0.96
Cc1c(C#N)sc(S(C)(=O)=O)c1-c1ccc(Cl)cc1	3.8
CS(=O)c1sccc1[N+](=O)[O-] (configuration not stated)	1.69
CS(=O)c1sc(C#N)c(Cl)c1C#N (configuration not stated)	2.15
CC(=O)c1sc(S(C)=O)c(-c2ccc(Cl)cc2)c1N (configuration not stated)	3.18

Structure (SMILES)	logP
CCCS(=O)c1sccc1[N+](=O)[O-] (configuration not stated)	2.52
CCCS(=O)c1sc(C#N)c(Cl)c1C#N (configuration not stated)	2.95
CCS(=O)c1sc(C(C)=O)c(Cl)c1C#N (configuration not stated)	2.64
CCCCS(=O)c1sc(C#N)c(Cl)c1C#N (configuration not stated)	3.44
CCS(=O)c1sc(C(C)=O)c(N)c1C#N (configuration not stated)	1.82
Cc1sc(S(C)=O)c([N+](=O)[O-])c1C (configuration not stated)	2.65
CC(=O)c1sc(S(C)=O)c(-c2ccc(Cl)cc2)c1C (configuration not stated)	3.82
Cc1csc(S(C)=O)c1[N+](=O)[O-] (configuration not stated)	2.19
CC(=O)c1sc(S(C)=O)c(C#N)c1-c1ccc(Cl)cc1 (configuration not stated)	3.31
CCS(=O)c1sc(C#N)c(C)c1C(C)=O (configuration not stated)	2.22
CCCCS(=O)c1sc(C#N)cc1C#N (configuration not stated)	2.64
CS(=O)c1cccs1 (configuration not stated)	0.91
CCS(=O)c1ccc(C(C)=O)s1 (configuration not stated)	1.31
CS(=O)c1sccc1Br (configuration not stated)	1.71
CCS(=O)c1sc(Cl)cc1C#N (configuration not stated)	2.31
CS(=O)c1sc(C#N)cc1C#N (configuration not stated)	1.31
